In the OligoGym collection one finds calcium oscillation score data, which are given here for 95 sequences.

Bases are written 5' to 3'; sugars and linkages follow in the same order, as letters with counts (s phosphorothioate, o phosphodiester; PS: all linkages phosphorothioate). The collection does not say whether C is 5-methylated. l = locked nucleic acid (LNA); d = 2'-deoxy (DNA)

For one data set, the target named is STC1. Briefly: rat primary cortical neurons, FLIPR, 25 uM ASO.
As to AACATTCAAGCCTTTC (sugars l3 d9 l4, PS), the calcium oscillation score is 109 % of control.
“TCAATATTATTCTTCTG (sugars l2 d11 l4, PS)”: the calcium oscillation score is 35.4 % of control.
As for TTACCCAAATACACACA (sugars l4 d9 l4, PS), the calcium oscillation score is 143 % of control.
In the case of ATAGTTATTCCATTCC (sugars l4 d10 l2, PS), the calcium oscillation score is 105 % of control.
With “TATTATTCTTCTGTTTC (sugars l3 d10 l4, PS)”, the calcium oscillation score is 53.4 % of control.
For TAGTTATTCCATTCCC (sugars l2 d12 l2, PS), the calcium oscillation score is 92.3 % of control.
Still for that read-out and setting: with ATCAATATTATTCTTCT (sugars l5 d8 l4, PS) the figure was 122 % of control.
Still for that read-out and setting: the figure for “TATTTATATTCCACAGT (sugars l3 d10 l4, PS)” is 107 % of control.
As to “TTACCCAAATACACACAT (sugars l4 d10 l4, PS)”, the calcium oscillation score is 137 % of control.
The same measure, in the same setting: the figure for “AGCTATTTATATTCCAC (sugars l2 d11 l4, PS)” is 122 % of control; for “TAGTTATTCCATTCCCA (sugars l2 d13 l2, PS)” it is 99.3 % of control.
As for “ATTATTCTTCTGTTTCC (sugars l2 d11 l4, PS)”, the calcium oscillation score was 67.6 % of control.
Still for that read-out and setting: the figure for ACATTCAAGCCTTTCC (sugars l4 d10 l2, PS) is 81.6 % of control.
Turning to “CTAATTATATATTTCCAC (sugars l4 d10 l4, PS)”, the calcium oscillation score is 119 % of control.
Same read-out and setting: with “CTATTTATATTCCACAG (sugars l4 d11 l2, PS)” the figure was 69.8 % of control; with ACCTGTAACTACTTCC (sugars l3 d11 l2, PS), 100 % of control.
Take “TTACAAGTCATTTCCCT (sugars l4 d11 l2, PS)”: the calcium oscillation score was 91.8 % of control.
The same measure, in the same setting: the figure for CAACATTCAAGCCTTT (sugars l5 d7 l4, PS) is 89.1 % of control; for “TTACCCAAATACACACATA (sugars l3 d12 l4, PS)” it is 119 % of control.

Molecular target in another data set: not listed separately
Briefly: rat primary cortical neurons, FLIPR, 25 uM ASO.
“TACTCAAATATAACACCAAC (sugars l3 d14 l3, PS)”: the calcium oscillation score is 85.6 % of control.

The target in the next data set is Tau. Briefly: rat primary cortical neurons, FLIPR, 25 uM ASO.
As to “AAAGCAGGTTAAGTGATTAA (sugars l3 d14 l3, PS)”, the calcium oscillation score is 2.59 % of control.
“CAAACAATCCATTTATATTC (sugars l4 d12 l4, PS)”: the calcium oscillation score is 55.5 % of control.
With CCTTAATTTCACCC (sugars l3 d8 l3, PS), the calcium oscillation score is 66.7 % of control.
On to “TTTAATTCACACAACAAACT (sugars l4 d12 l4, PS)”, for which the calcium oscillation score was 89.1 % of control.
On the same count and under the same terms, the figure for TCCCAGCGTGATCT (sugars l3 d8 l3, PS) is 3.83 % of control; for “CTCTTATCTTTGTTTCTA (sugars l4 d12 l2, PS)” it is 51.1 % of control.
Take “CATCAGTCTTATCTCCC (sugars l2 d13 l2, PS)”: the calcium oscillation score was 54.7 % of control.
As to GGCCTGATCACAAACC (sugars l3 d10 l3, PS), the calcium oscillation score is 132 % of control.
The same measure, in the same setting: with “AACCAATTAACCGAACTGCG (sugars l3 d14 l3, PS)” the figure was 18.1 % of control; with “CTTTATTTCCAAATTCACTT (sugars l3 d1 l1 d11 l4, PS)”, 129 % of control; with “GGACGTGGGTGATATTGTCC (sugars l3 d14 l3, PS)”, 0 % of control.
In the case of “GCTTAATAAACACCCTT (sugars l2 d11 l4, PS)”, the calcium oscillation score was 68.5 % of control.
The same measure, in the same setting: with “CTACACCACTGTTCCATA (sugars l1 d15 l2, PS)” the figure was 62 % of control; with TTACACCATCCAAGTC (sugars l4 d9 l3, PS), 101 % of control.
The same measure, in the same setting: the figure for “GCCCATTCTACCTGGCCCAT (sugars l3 d14 l3, PS)” is 38.3 % of control; for “AATCCCAGTTTCCCCCA (sugars l4 d11 l2, PS)” it is 65.6 % of control.
As for “TAGCCCACCCATCAATTTGG (sugars l3 d14 l3, PS)”, the calcium oscillation score was 7.77 % of control.
Same read-out and setting: with CCAGCGTGATCTTCCA (sugars l3 d10 l3, PS) the figure was 98 % of control; with “TCTTTATTAACACTCCACA (sugars l4 d13 l2, PS)”, 62.5 % of control.
CATCGCTTCCAGTC (sugars l3 d8 l3, PS): the calcium oscillation score is 116 % of control.
Take “GCTTTTCCCAATTATTA (sugars l4 d11 l2, PS)”: the calcium oscillation score was 62 % of control.
For the sequence TCCTAATCCTGTGCT (sugars l3 d9 l3, PS), the calcium oscillation score is 140 % of control.
On the same count and under the same terms, with GTCCCGAGCCAAAG (sugars l3 d8 l3, PS) the figure was 0 % of control; with “TATCCTTTGAGCCACACTTG (sugars l3 d14 l3, PS)”, 11.7 % of control.
Same read-out and setting: with “TTTGGAAAGATGAAATTTGC (sugars l3 d14 l3, PS)” the figure was 7.77 % of control; with “CTTTATTTCCAAATTCACTT (sugars l5 d11 l4, PS)”, 143 % of control; with TTGAGTTGAGGGACCC (sugars l3 d10 l3, PS), 0 % of control.
For the sequence TGTAGACTATTTGCAC (sugars l3 d10 l3, PS), the calcium oscillation score is 93.3 % of control.
Take “AACCGTTTTCTTACCAC (sugars l2 d11 l4, PS)”: the calcium oscillation score was 60.1 % of control.
Take TTCCCTTAATTTCACC (sugars l3 d10 l3, PS): the calcium oscillation score is 127 % of control.
Consider “AACTGGTTTGTAGACTATTT (sugars l3 d14 l3, PS)”, for which the calcium oscillation score was 0 % of control.
As for “TGGTTTATGATGGATGTTGC (sugars l3 d14 l3, PS)”, the calcium oscillation score was 0 % of control.
The same measure, in the same setting: the figure for “AATTATTAAATCTTCTCTTA (sugars l4 d12 l4, PS)” is 62.6 % of control.
“TGGTTAGCCCTAAAGTCCCA (sugars l3 d14 l3, PS)”: the calcium oscillation score is 74.5 % of control.
As to GTCTGTCTTGGCTTTG (sugars l3 d10 l3, PS), the calcium oscillation score was 0 % of control.
On to “ACCTCTTAGTCATCTTCCC (sugars l2 d15 l2, PS)”, for which the calcium oscillation score was 67.9 % of control.
Still for that read-out and setting: with “TTTATTAATTCATAAATGAC (sugars l3 d14 l3, PS)” the figure was 46.3 % of control; with “CTGATCACAAACCCTGCTTG (sugars l3 d14 l3, PS)”, 20.3 % of control.
Same read-out and setting: the figure for CCCTAAAGTCCCAG (sugars l3 d8 l3, PS) is 51.4 % of control.
In the case of TGGCTTTGGCGTTCTC (sugars l3 d10 l3, PS), the calcium oscillation score is 28.7 % of control.
Same read-out and setting: with “TTATTTATTCTTTTTATTAT (sugars l4 d12 l4, PS)” the figure was 66.3 % of control; with “TCAAATCAATTCTCATTTCA (sugars l3 d13 l4, PS)”, 62 % of control; with GATGTTGCCTAATGAG (sugars l3 d10 l3, PS), 0 % of control.
With “TGCCTAATGAGCCACACTTG (sugars l3 d14 l3, PS)”, the calcium oscillation score is 29.9 % of control.
As to TTCAGGTCTGGCATGG (sugars l3 d10 l3, PS), the calcium oscillation score was 1.9 % of control.
For GAAGGTCAGCTTGTGG (sugars l3 d10 l3, PS), the calcium oscillation score is 11.4 % of control.
Take “CATCTCTCTAGACATCTC (sugars l2 d13 l3, PS)”: the calcium oscillation score was 64.6 % of control.
In the case of “ACTTGTACACGATCTCCGCC (sugars l3 d14 l3, PS)”, the calcium oscillation score was 103 % of control.
Same read-out and setting: the figure for “CCATTTTTATCATCACCT (sugars l3 d13 l2, PS)” is 63.8 % of control; for “ACTCAACATTACCCTTAAAT (sugars l4 d14 l2, PS)” it is 71.5 % of control; for AGTCCTAATCCTGTGC (sugars l3 d10 l3, PS) it is 25.3 % of control.
On the same count and under the same terms, with “TGTCCAGGGACCCAATCTTC (sugars l3 d14 l3, PS)” the figure was 39.9 % of control.
On the same count and under the same terms, with CCAATACTAGATCTAT (sugars l4 d8 l4, PS) the figure was 64.7 % of control.
Turning to TTGAAGTCCCGAGC (sugars l3 d8 l3, PS), the calcium oscillation score is 0 % of control.
With “ACCCCACATTTGCAAAC (sugars l3 d12 l2, PS)”, the calcium oscillation score is 63.5 % of control.
On the same count and under the same terms, with “CTAGCCCACCCATCAATTTG (sugars l3 d14 l3, PS)” the figure was 0 % of control; with CTAATCCTGTGCTT (sugars l3 d8 l3, PS), 26.1 % of control; with “TGTTGCCTAATGAGCCACAC (sugars l3 d14 l3, PS)”, 54.2 % of control.
For the sequence “ACTTTATTTCCAAATTCACTT (sugars l5 d11 l5, PS)”, the calcium oscillation score is 121 % of control.
On the same count and under the same terms, the figure for “TTATTTCCAAATTCACTTTT (sugars lldllddddddddddlldll, PS)” is 121 % of control.
On the same count and under the same terms, the figure for “GTGATATTGTCCAGGGACCC (sugars l3 d14 l3, PS)” is 0 % of control.
Still for that read-out and setting: the figure for “CTTTTTCTTGTTCTAACC (sugars l3 d11 l4, PS)” is 62.3 % of control; for ATCTCAAGTCTTATTCT (sugars l4 d9 l4, PS) it is 48.8 % of control; for “CAACAATCCAACCACTAAA (sugars l4 d11 l4, PS)” it is 89.8 % of control.
Regarding GCCTAATGAGCCACAC (sugars l3 d10 l3, PS), the calcium oscillation score was 70.6 % of control.
In the case of AGCTTTGAGTTGAGGG (sugars l3 d10 l3, PS), the calcium oscillation score was 0 % of control.
Turning to “ATACTCAAATTCTTCCTT (sugars l4 d11 l3, PS)”, the calcium oscillation score is 70.9 % of control.
As to “TTCTTCCTTTGTAATTCC (sugars l3 d13 l2, PS)”, the calcium oscillation score is 39.6 % of control.
As for “CATGACATTTTAAACCC (sugars l3 d10 l4, PS)”, the calcium oscillation score was 69.2 % of control.
Still for that read-out and setting: the figure for GCGACTTGTACACG (sugars l3 d8 l3, PS) is 63.7 % of control; for “GCTCCATATTCCTGCCCAAG (sugars l3 d14 l3, PS)” it is 34.2 % of control.
On the same count and under the same terms, the figure for “CAGGTATCCAGCCATATTTC (sugars l3 d14 l3, PS)” is 27.5 % of control; for GAAAGAGGGCAGCAGG (sugars l3 d10 l3, PS) it is 0 % of control.
Same read-out and setting: the figure for AAGATGAAATTTGCTC (sugars l3 d10 l3, PS) is ≥ 200 % of control; for “TATTTCCAAATTCACTTTTA (sugars lllddldddddddddlldll, PS)” it is 127 % of control.
